Assay results from PubChem BioAssay AID330 (DTP/NCI, 2004).
“And” between values parts separate entries of the source, which are not always exact repeats. Identical values can stand only once. Inconclusive results and toxic doses are left out. The calls were made as follows: active = survival T/C of 150% or more; inactive = T/C below 125% in these data.

System: P388 leukemia ip, CD2F1 mice, survival T/C
Assay: NCI In Vivo Anticancer Drug Screen. Data for tumor model P388 Leukemia (intraperitoneal) in CD2F1 (CDF1) mice
Settings: endpoint: median survival time, higher = longer survival
Procedure, shortened: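 Mice carrying the transplanted tumor received test compound or vehicle. Survival was recorded in each group, and the value is the treated-group measurement divided by that of the vehicle-treated control group.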

[1] = dose: 60.0 mg/kg/injection, schedule: Q01DX005 (ip), vehicle: Klucel (hydroxypropylcellulose) (HPC)
[2] = dose: 120.0 mg/kg/injection, schedule: Q01DX005 (ip), vehicle: Klucel (hydroxypropylcellulose) (HPC)
[3] = dose: 240.0 mg/kg/injection, schedule: Q01DX005 (ip), vehicle: Klucel (hydroxypropylcellulose) (HPC)
[4] = dose: 50.0 mg/kg/injection, schedule: Q01DX009 (ip), vehicle: saline with Tween-80
[5] = dose: 100.0 mg/kg/injection, schedule: Q01DX009 (ip), vehicle: saline with Tween-80
[6] = dose: 200.0 mg/kg/injection, schedule: Q01DX009 (ip), vehicle: saline with Tween-80
[7] = dose: 6.25 mg/kg/injection, schedule: Q01DX005 (ip), vehicle: saline with Tween-80
[8] = dose: 12.5 mg/kg/injection, schedule: Q01DX005 (ip), vehicle: saline with Tween-80
[9] = dose: 25.0 mg/kg/injection, schedule: Q01DX005 (ip), vehicle: saline with Tween-80
[10] = dose: 100.0 mg/kg/injection, schedule: Q04DX002 (ip), vehicle: Klucel (hydroxypropylcellulose) (HPC)
[11] = dose: 200.0 mg/kg/injection, schedule: Q04DX002 (ip), vehicle: Klucel (hydroxypropylcellulose) (HPC)
[12] = dose: 400.0 mg/kg/injection, schedule: Q04DX002 (ip), vehicle: Klucel (hydroxypropylcellulose) (HPC)
[13] = dose: 50.0 mg/kg/injection, schedule: Q01DX005 (ip), vehicle: saline with Tween-80
[14] = dose: 100.0 mg/kg/injection, schedule: Q01DX005 (ip), vehicle: saline with Tween-80

Measured: T/C

O=C(/C=C\c1cc2[nH]c1c(-c1ccccc1)c1nc(c(-c3ccccc3)c3ccc([nH]3)c(-c3ccccc3)c3nc(c2-c2ccccc2)C=C3)C=C1)NCCCn1ccnc1
inactive: dose: 50.0 mg/kg/injection, schedule: Q01DX001 (ip), vehicle: Klucel (hydroxypropylcellulose) (HPC) 100 % of control | dose: 100.0 mg/kg/injection, schedule: Q01DX001 (ip), vehicle: Klucel (hydroxypropylcellulose) (HPC) 94 % of control | dose: 200.0 mg/kg/injection, schedule: Q01DX001 (ip), vehicle: Klucel (hydroxypropylcellulose) (HPC) 93 % of control | dose: 400.0 mg/kg/injection, schedule: Q01DX001 (ip), vehicle: Klucel (hydroxypropylcellulose) (HPC) 96 % of control

NCCN(Cc1ccccc1)C1CC1
inactive: dose: 50.0 mg/kg/injection, schedule: Q01DX009 (ip), vehicle: saline 98 % of control | dose: 100.0 mg/kg/injection, schedule: Q01DX009 (ip), vehicle: saline 91 % of control

Nc1[nH]n(-c2ccccc2)c(=O)c1C1c2ccccc2Sc2ccccc21
inactive: dose: 60.0 mg/kg/injection, schedule: Q01DX005 (ip), vehicle: saline with Tween-80 99 % of control | dose: 120.0 mg/kg/injection, schedule: Q01DX005 (ip), vehicle: saline with Tween-80 99 % of control | dose: 240.0 mg/kg/injection, schedule: Q01DX005 (ip), vehicle: saline with Tween-80 95 % of control

COc1cc(Br)c(C2SCC(=O)N2c2nncs2)cc1OC (stereo not given)
inactive: [1] 121 % of control | [2] 106 % of control | [3] 100 % of control

CS(=O)(=O)c1cc(C(=O)O)cc(NCc2ccccc2)c1Oc1ccccc1
inactive: [4] 106 % of control | [5] 96 % of control | [6] 102 % of control

CCOC(=O)CC(C)C#N (stereo not given)
inactive: [4] 99 % of control | [5] 99 % of control | [6] 101 % of control

C/C=C/C=C1\C=Cc2c(C(=O)OC)coc(=O)c21
inactive: dose: 19.5 mg/kg/injection, schedule: Q01DX005 (ip), vehicle: Klucel (hydroxypropylcellulose) (HPC) 107 % of control | dose: 39.0 mg/kg/injection, schedule: Q01DX005 (ip), vehicle: Klucel (hydroxypropylcellulose) (HPC) 110 % of control | dose: 78.0 mg/kg/injection, schedule: Q01DX005 (ip), vehicle: Klucel (hydroxypropylcellulose) (HPC) 108 % of control

COc1cc(NCCCCCCNC(C)C)c2ncccc2c1
inactive: [7] 100 % of control | [8] 102 % of control | [9] 95 % of control

O=C(c1ccccc1)C1C(c2ccccc2)SC(c2ccccc2)CC1(O)Cl (stereo not given)
inactive: [10] 87 % of control | [11] 87 % of control | [12] 87 % of control

CCOC(=O)C(Nc1cc([N+](=O)[O-])ccc1C(=O)N1CCCCC1)(C(=O)OCC)N1CCCCC1
inactive: [1] 96 % of control | [2] 92 % of control | [3] 89 % of control

C/C=C(\C)c1cc(=O)c2c(C)cc3c(c2o1)C(=O)c1c(O)c(C2CC(C)(N(C)C)C(O)C(C)O2)cc(C2CC(N(C)C)C(O)C(C)O2)c1C3=O (stereo not given)
inactive: dose: 0.31 mg/kg/injection, schedule: Q01DX009 (ip), vehicle: saline 100 % of control | dose: 1.25 mg/kg/injection, schedule: Q01DX009 (ip), vehicle: saline 91 % of control | dose: 2.0 mg/kg/injection, schedule: Q01DX009 (ip), vehicle: Klucel (hydroxypropylcellulose) (HPC) 118 % of control | dose: 3.0 mg/kg/injection, schedule: Q01DX009 (ip), vehicle: saline 109 % of control | dose: 5.0 mg/kg/injection, schedule: Q01DX009 (ip), vehicle: saline 94 % of control | dose: 6.25 mg/kg/injection, schedule: Q01DX009 (ip), vehicle: saline with Tween-80 95 % of control
active: dose: 0.62 mg/kg/injection, schedule: Q01DX009 (ip), vehicle: saline 153 % of control | dose: 2.0 mg/kg/injection, schedule: Q01DX009 (ip), vehicle: saline 154 % of control

CC(=O)Oc1c(C)c(C)c(OC(C)=O)c(OC(C)=O)c1C
inactive: [10] 93 % of control | [11] 96 % of control | [12] 90 % of control

O=CNC(Cc1ccccc1N(CCCl)CCCl)C(=O)O (stereo not given)
inactive: dose: 40.0 mg/kg/injection, schedule: Q04DX003 (ip), vehicle: water 113 % of control
active: dose: 5.0 mg/kg/injection, schedule: Q04DX003 (ip), vehicle: other 198 % of control | dose: 5.0 mg/kg/injection, schedule: Q04DX003 (ip), vehicle: water 154 % of control | dose: 10.0 mg/kg/injection, schedule: Q04DX003 (ip), vehicle: other 261 % of control | dose: 10.0 mg/kg/injection, schedule: Q04DX003 (ip), vehicle: water 187 % of control | dose: 20.0 mg/kg/injection, schedule: Q04DX003 (ip), vehicle: other 293 % of control | dose: 20.0 mg/kg/injection, schedule: Q04DX003 (ip), vehicle: water 309 % of control

COC(C(N)=O)(c1ccccc1)C(F)(F)F (stereo not given)
inactive: [5] 90 % of control | [6] 100 % of control | dose: 400.0 mg/kg/injection, schedule: Q01DX009 (ip), vehicle: saline with Tween-80 90 % of control

O=[N+]([O-])C1C=Nc2ccccc2N=C1
inactive: dose: 50.0 mg/kg/injection, schedule: Q01DX009 (ip), vehicle: Klucel (hydroxypropylcellulose) (HPC) 105 % of control | dose: 100.0 mg/kg/injection, schedule: Q01DX009 (ip), vehicle: Klucel (hydroxypropylcellulose) (HPC) 97 % of control | dose: 200.0 mg/kg/injection, schedule: Q01DX009 (ip), vehicle: Klucel (hydroxypropylcellulose) (HPC) 97 % of control | dose: 400.0 mg/kg/injection, schedule: Q01DX009 (ip), vehicle: Klucel (hydroxypropylcellulose) (HPC) 96 % of control

O=C1C(=O)N(c2ccccc2)N=C1N=Nc1ccccc1
inactive: [13] 110 % of control and 115 % of control | [14] 108 % of control and 114 % of control | dose: 200.0 mg/kg/injection, schedule: Q01DX005 (ip), vehicle: saline with Tween-80 117 % of control and 120 % of control | dose: 400.0 mg/kg/injection, schedule: Q01DX005 (ip), vehicle: saline with Tween-80 109 % of control

CN(C)CC/C=C1/c2ccccc2Sc2ccc(Cl)cc21
inactive: [7] 104 % of control | [8] 111 % of control

O=C1[N-]C(=S)c2cccn21.O=C1[N-]C(=S)c2cccn21.[Pd+2]
inactive: [8] 103 % of control | [9] 103 % of control | [13] 99 % of control | [14] 99 % of control

CNc1cccc(NC)c1
inactive: dose: 12.5 mg/kg/injection, schedule: Q01DX009 (ip), vehicle: water 105 % of control | dose: 25.0 mg/kg/injection, schedule: Q01DX009 (ip), vehicle: water 112 % of control

CS(=O)(=O)O/C=C1\C(=O)OC2CCCCC12 (stereo not given)
inactive: dose: 18.8 mg/kg/injection, schedule: Q01DX009 (ip), vehicle: distilled water + Tween-80 108 % of control | dose: 37.5 mg/kg/injection, schedule: Q01DX009 (ip), vehicle: distilled water + Tween-80 107 % of control and 116 % of control | dose: 75.0 mg/kg/injection, schedule: Q01DX009 (ip), vehicle: distilled water + Tween-80 116 % of control and 118 % of control | dose: 150.0 mg/kg/injection, schedule: Q01DX009 (ip), vehicle: distilled water + Tween-80 120 % of control

C[C@@H]1C[C@@]2(C)[C@@H](CC[C@@H]3[C@@H]2CC[C@@]2(C)[C@H]3CC[C@]2(C)O)CC1=O
inactive: dose: 25.0 mg/kg/injection, schedule: Q01DX009 (ip), vehicle: saline sonified 95 % of control | dose: 25.0 mg/kg/injection, schedule: Q04DX003 (ip), vehicle: saline with Tween-80 100 % of control | dose: 50.0 mg/kg/injection, schedule: Q01DX009 (ip), vehicle: saline sonified 86 % of control | dose: 50.0 mg/kg/injection, schedule: Q04DX003 (ip), vehicle: saline with Tween-80 100 % of control | dose: 100.0 mg/kg/injection, schedule: Q01DX009 (ip), vehicle: saline sonified 95 % of control | dose: 100.0 mg/kg/injection, schedule: Q04DX003 (ip), vehicle: saline with Tween-80 100 % of control

CC[N+]12CC=C(CO)C1C(O)CC2 (stereo not given)
inactive: dose: 60.0 mg/kg/injection, schedule: Q01DX005 (ip), vehicle: saline 97 % of control | dose: 120.0 mg/kg/injection, schedule: Q01DX005 (ip), vehicle: saline 95 % of control | dose: 240.0 mg/kg/injection, schedule: Q01DX005 (ip), vehicle: saline 106 % of control
